Earlier results on one molecule are cited in patent US20240299549A1, “STABLE FORMULATIONS OF INDOCYANINE GREEN” (PROVEPHARM LIFE SOLUTIONS, priority 2021, published 2024).

For data set [1] the following is noted: 10 hours of storage in water and direct light.
The conditions of data set [2]: stored at 4° C. in the dark, three days.

On to `CC1(C)C(/C=C/C=C/C=C/C=C2\N(CCCCS(=O)(=O)[O-])c3ccc4ccccc4c3C2(C)C)=[N+](CCCCS(=O)(=O)[O-])c2ccc3ccccc3c21.[Na+]` [ICG, Indocyanine green], for which, in data set [1], the “reduction of absorbance at spectral peak” value is on record as 10%. Also, the fluorescence intensity lost in data set [2] is reported as 20%.
